Data from patent US11958868B2, “Methods of using metal complexes to promote wound healing” (University of Macau, priority 2022, dated 2024).
pIC50, pKd: −log10 of the molar value.

Key:
PHD2 = target: T1, PHD2 (Homo sapiens, UniProt Q9GZT9); experiment: Cellular thermal shift assay (CETSA) in HEK293 cell lysates, PHD2; format: binding; conditions: 3 μM
T1 construct: detected by Western blotting using either VHL or PHD2 antibodies; endogenous in cells; host or cells: HEK293 cell lysate
Description: HEK293 cells were treated with vehicle DMSO (1% for 2 h), 1a (0.3, 1, 3, 6 and 9 μM for 2 h), VH298 (100 μM for 2 h), MG132 (20 μM for 3 h), or FG-4592 (100 μM for 2 h) before lysis. Cell lysates were collected and incubated with VHL antibody overnight at 4° C. The proteins were immunoprecipitated using agarose beads. The levels of hydroxy-HIF-1α co-precipitated with VHL were detected using a hydroxy-HIF-1α antibody, and then visualized using ECL Western Blotting Detection Reagent (GE Healthcare). (B) Cellular thermal shift assays to monitor cellular target engagement of VHL and HIF-1α. HEK293 cell lysates were treated with 1a (3 μM) at room temperature for 30 min and then heated at different temperature ranging from 48° C. to 68° C. for 5 min. The protein samples were collected and detected by Western blotting using either VHL or PHD2 antibodies. (C) Fluorescence-based protein thermal shift assay of VBC in the presence or absence of VH298 (100 μM) and complex 1a (100 μM). […] Data are expressed as means±SD (n=3 independent experiments for figures a and b, samples for figures c and e), P values were calculated using a two-sided t-test. *P<0.05, **P<0.01 vs. DMSO group.
After incubating HEK293 cell lysates with complex 1a followed by heating to set temperatures, VHL and PHD2 levels in the soluble fraction were quantitated by Western blotting. […]

[1] = target: T2, human recombinant VHL:ElonginB:ElonginC (VBC) complex (Homo sapiens, UniProt P40337); experiment: Circular dichroism of VBC complex; format: binding; conditions: 3 μM in 1% DMSO
T2 construct: made in house

[2] = target: T2, human recombinant VHL:ElonginB:ElonginC (VBC) complex; experiment: Competitive fluorescence polarization binding assay
[3] = Stability in solution (1H NMR, UV/Vis); format: physicochemical; conditions: 298 K
Excerpt: Based on the structure of complex 1, a focused library of 14 cyclometalated Rh(III) and Ir(III) complexes containing different CAN or NAN donor ligands were designed and synthesized (1a-1n) (FIG. 1c). This library was enriched in the brpy CAN and dmeophen N^N ligands that were identified in the first round of screening to be favorable substructures for potency.

[4] = system: wound tissue of normal and diabetic mice; experiment: Wound tissue analysis (H&E, Masson's trichrome, laser doppler, CD31, Western blot, qRT-PCR) in normal and diabetic mice; format: in vivo
Excerpt: (A) Timeline for in vivo experiments. (B) Image of representative wound (left) and wound closure rate (right) (n=5 mice). (C) H&E and Masson's trichrome staining of dorsal skin section and skin thickness from the top of the epidermis to the bottom of the dermis in mice after 8 days post-injury (n=4 mice). Scale bar=200 μm. (D) Laser doppler imager in dorsal skin: representative images were shown for each group (left) and baseline perfusion on back skin of mice (right) after 2 days post-injury (dotted line circle represents the wound bed in mice of each group and arrow represents perfusion intensity (n=5 mice). (E) CD31 and DAPI double staining in wound bed of mice after 8 days post-injury (n=4 mice). Scale bar=50 μm. Data are expressed as means±SD, P values were calculated using a one-way ANOVA with Tukey's multiple comparison test. #P<0.05, ##P<0.01 WT vs. db/db, *P<0.05, **P<0.01 1a vs. vehicle.
(A) Western blot analyses and quantitation of HIF-1α, VEGF, GLUT1, and EPO in wound tissue (n=3 mice). All proteins were normalized by β-actin. (B) The mRNA levels of HIF-1α target genes involved in wound healing were analyzed by qRT-PCR in wound tissues (n=5 mice). Data are expressed as means±SD, P values were calculated using a one-way ANOVA with Tukey's multiple comparison test. P<0.05, P<0.01 WT vs. db/db, *P<0.05, **P<0.01 1a vs. vehicle. S
The epithelial thickness of the regenerated skin in each group was compared using H&E staining and Masson's trichrome staining. […] One of the key processes related to wound healing is tissue angiogenesis.
After electrophoresis of protein samples (30 μg of total protein) on SDS-PAGE gels, the samples were transferred to a PVDF membrane and incubated at room temperature with blocking solution for 1 h. The membrane was treated with primary antibodies and incubated overnight at 4° C. After 1 h incubation with the secondary antibodies (Supplementary Table Sl), protein bands were visualized using ECL Western Blotting Detection Reagent (GE Healthcare).
After fixation in 4% paraformaldehyde, the skin samples were embedded in paraffin and sectioned ([…]). For histological evaluation, sections were deparaffinized and rehydrated followed by hematoxylin and eosin (H&E) and Masson's trichrome staining. For immunohistochemical staining of CD31, the wound tissue sections were deparaffinized and stained with CD31 antibody (1:1000; ABclonal, Cambridge, MA, USA). The slides were examined under ×400 magnification to identify the area with the highest vascular density, and five randomly high-power field areas of the highest microvessel density were selected for each section. The average was calculated as the microvessel density of this sample.

[5] = normal and diabetic mice, 8 days post-injury

**Q.** With `COc1cc[n+]2c3c1ccc1c(OC)cc[n+](c13)[Ir-3]213([c]2ccccc2-c2cccc[n+]21)[c]1ccccc1-c1cccc[n+]13.F[P-](F)(F)(F)(F)F` [1a] as the compound, how does the “Thermal stabilization of PHD2 (CETSA)” value (PHD2) read?
**A.** The value was “no appreciable effect on the thermal stabilization of PHD2”.

**Q.** What about the “Circular dichroism signal of VBC complex” value [1] of the same compound?
**A.** The value was “distinct shift of the signal”.

**Q.** And the pIC50 ([2]; 125 nM fluorescent peptide and 450 nM VBC, four-parameter logistic equation)?
**A.** Its pIC50 is 5.42.

**Q.** What about the pKd ([2]; displacement of FAM-DEALAHyp-YIPD from VBC) of the same compound?
**A.** Its pKd is 5.69.

**Q.** What about the “Stability in [d6]DMSO/D2O (9:1) solution” value ([3]; 1H NMR spectroscopy) of the same compound?
**A.** Its value is “remarkable stability in a [d6]DMSO/D2O (9:1) solution for at least seven days”.

**Q.** And the “Stability in acetonitrile/H2O (9:1) solution” value ([3]; UV/Vis spectroscopy)?
**A.** The value was “for at least seven days”.

**Q.** What about the “HIF-1α target genes in wound tissue, qRT-PCR, WT/NC mice” value ([4]; WT/NC mice) of the same compound?
**A.** The value was “weaker effects”.

**Q.** What about the “Expression of HIF-1α, VEGF, GLUT1 and EPO in wound tissue (Western blotting)” value ([4]; WT/NC, db/db, HFD/STZ and STZ groups, 8 days post-wounding, vs vehicle) of the same compound?
**A.** The value was “significantly increased”.

**Q.** And the “HIF-1α target genes (HSP-90, VEGFR-1, SDF-1, SCF, Tie-2) in wound tissue, qRT-PCR, diabetic mice” value ([4]; diabetic mice)?
**A.** Its value is “also increased in the wound tissue of 1a-treated diabetic mice”.

**Q.** And the “Microvessel density in wound areas (CD31 immunostaining)” value ([4]; normal and diabetic groups, 8 days post-injury)?
**A.** Its value is “significantly enhanced microvessel density”.

**Q.** And the “Skin blood flow rate (skin perfusion pressure test)” value ([4]; normal and diabetic mice, 2 days post-injury)?
**A.** The value was “remarkably increased skin blood flow rate”.

**Q.** What about the “Collagen deposition in wound areas” value [4, 5] of the same compound?
**A.** Its value is “enhanced collagen deposition in wound areas”.

**Q.** What about the “Skin thickness (H&E, Masson's trichrome)” value [4, 5] of the same compound?
**A.** The value was “increased skin thickness”.
